Experiments:
human ENPP1 = target: T1, human ENPP1 (Homo sapiens, UniProt P22413); assay: ENPP1 assay with ATP substrate (Transcreener AMP2/GMP2 TR-FRET); format: biochemical; settings: 1 hour at room temperature
T1 construct: made in house
T1 sequence (P22413 1-925): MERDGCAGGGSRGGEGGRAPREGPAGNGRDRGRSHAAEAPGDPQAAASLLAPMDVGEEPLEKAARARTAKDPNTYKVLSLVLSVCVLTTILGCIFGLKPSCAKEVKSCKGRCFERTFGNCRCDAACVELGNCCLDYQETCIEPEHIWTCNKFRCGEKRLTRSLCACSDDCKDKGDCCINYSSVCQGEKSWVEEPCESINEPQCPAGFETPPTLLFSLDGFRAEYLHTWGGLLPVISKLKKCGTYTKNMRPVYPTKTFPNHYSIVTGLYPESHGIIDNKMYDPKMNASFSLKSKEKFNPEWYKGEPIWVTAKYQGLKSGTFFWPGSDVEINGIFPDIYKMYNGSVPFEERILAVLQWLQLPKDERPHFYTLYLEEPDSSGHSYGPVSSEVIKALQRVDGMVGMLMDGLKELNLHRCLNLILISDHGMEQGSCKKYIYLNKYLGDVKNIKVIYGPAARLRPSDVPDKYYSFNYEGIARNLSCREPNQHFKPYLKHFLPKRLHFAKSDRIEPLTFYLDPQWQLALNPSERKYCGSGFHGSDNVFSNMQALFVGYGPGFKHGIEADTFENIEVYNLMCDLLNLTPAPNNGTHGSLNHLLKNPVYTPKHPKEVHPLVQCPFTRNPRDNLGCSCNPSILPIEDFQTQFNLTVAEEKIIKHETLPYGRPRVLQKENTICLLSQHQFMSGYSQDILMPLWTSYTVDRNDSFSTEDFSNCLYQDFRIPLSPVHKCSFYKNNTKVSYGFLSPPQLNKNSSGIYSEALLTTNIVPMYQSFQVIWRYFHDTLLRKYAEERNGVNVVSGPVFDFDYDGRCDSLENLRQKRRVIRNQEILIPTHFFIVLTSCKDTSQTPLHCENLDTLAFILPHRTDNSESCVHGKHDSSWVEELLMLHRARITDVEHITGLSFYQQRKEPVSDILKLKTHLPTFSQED
In short: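 5′-AMP from ATP hydrolysis (300 nM ATP stock added; enzyme added as 8.5 μM stock) detected by competitive TR-FRET. Buffer: 50 mM Tris pH 7.5, 1 mM TCEP, 2 mM MgCl2, 0.005% Tween 20, 1% DMSO. Reaction 1 h at room temperature, EDTA stop. IC50 from 2-parameter variable-slope fit.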

ENPP3 = target: T2, ENPP3 (Homo sapiens, UniProt O14638); assay: ENPP3 Km ATP assay; format: biochemical; settings: ATP at Km
T2 sequence (O14638 1-875): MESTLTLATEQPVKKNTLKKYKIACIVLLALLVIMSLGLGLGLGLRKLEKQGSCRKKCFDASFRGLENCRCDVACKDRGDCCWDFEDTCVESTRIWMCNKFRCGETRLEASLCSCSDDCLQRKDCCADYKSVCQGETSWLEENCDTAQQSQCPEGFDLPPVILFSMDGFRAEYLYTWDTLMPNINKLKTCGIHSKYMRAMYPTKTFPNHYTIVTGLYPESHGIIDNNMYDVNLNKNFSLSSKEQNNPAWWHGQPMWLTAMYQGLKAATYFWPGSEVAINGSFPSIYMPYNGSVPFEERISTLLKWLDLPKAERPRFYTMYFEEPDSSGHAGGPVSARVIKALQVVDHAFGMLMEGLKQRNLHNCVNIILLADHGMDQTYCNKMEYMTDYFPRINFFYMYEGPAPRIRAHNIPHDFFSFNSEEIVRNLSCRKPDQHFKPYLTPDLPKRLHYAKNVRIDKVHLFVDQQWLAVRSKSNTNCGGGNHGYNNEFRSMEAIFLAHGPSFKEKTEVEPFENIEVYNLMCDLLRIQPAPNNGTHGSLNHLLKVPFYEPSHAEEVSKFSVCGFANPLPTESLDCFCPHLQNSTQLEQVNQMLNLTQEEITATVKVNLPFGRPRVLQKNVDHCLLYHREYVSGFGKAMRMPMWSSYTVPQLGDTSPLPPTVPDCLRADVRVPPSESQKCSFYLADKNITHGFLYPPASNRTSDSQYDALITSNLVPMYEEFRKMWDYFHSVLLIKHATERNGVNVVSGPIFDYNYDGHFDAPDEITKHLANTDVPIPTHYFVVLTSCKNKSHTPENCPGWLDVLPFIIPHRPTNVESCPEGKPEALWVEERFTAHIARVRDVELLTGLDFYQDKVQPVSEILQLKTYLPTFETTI

SMILES | IC50 (human ENPP1) [µM] | IC50 (ENPP3) [µM]
O=C(CCc1ccc(F)cc1)NC1CCN(c2ncnc3c(-c4ccccc4)csc23)CC1 [Example 3.57, 3-(4-Fluorophenyl)-N-(1-(7-phenylthieno[3,2-d]pyrimidin-4-yl)piperidin-4-yl)propanamide] | > 20 | > 20
Cc1cc(CNc2ccnc3c2cnn3C)ccc1S(N)(=O)=O [Example 2.70, 2-Methyl-4-(((1-methyl-1H-pyrazolo[3,4-b]pyridin-4-yl)amino)methyl)-benzenesulfonamide] | 0.1 to 1 | 1 to 20
NS(=O)(=O)c1ccc(CNc2nc(-c3ccccn3)nc3scc(-c4ccncc4)c23)cc1 [Example 1.20, 4-(((2-(Pyridin-2-yl)-5-(pyridin-4-yl)thieno[2,3-d]pyrimidin-4-yl)amino)methyl)-benzenesulfonamide] | 1 to 20 | > 20
Cn1ncc2c(NCc3ccc(S(N)(=O)=O)c(Cl)c3)ncnc21 [Example 2.4, 2-Chloro-4-(((1-methyl-1H-pyrazolo[3,4-d]pyrimidin-4-yl)amino)methyl)-benzenesulfonamide] | 0.1 to 1 | 1 to 20
NS(=O)(=O)c1ccc(CNc2nc(NCc3ccccc3)nc3scc(-c4ccccc4)c23)cc1 [Example 1.41, 4-(((2-(Benzylamino)-5-phenylthieno[2,3-d]pyrimidin-4-yl)amino)methyl)-benzenesulfonamide] | < 0.1 | 0.1 to 1
Nc1nc(NCc2ccc(S(N)(=O)=O)cc2)c2c(-c3ccccc3)csc2n1 [Example 1.57, 4-((2-Amino-5-phenylthieno[2,3-d]pyrimidin-4-yl)aminomethyl)benzenesulfonamide] | < 0.1 | 0.1 to 1
NS(=O)(=O)c1ccc(CNc2nc(-c3ccncc3)nc3scc(-c4ccccc4)c23)s1 [Example 1.29, 5-(((5-Phenyl-2-(pyridin-4-yl)thieno[2,3-d]pyrimidin-4-yl)amino)methyl)thiophene-2-sulfonamide] | > 20 | > 20
NS(=O)(=O)c1ccc(CNc2nc(-c3ccccn3)nc3scc(-c4cccnc4)c23)cc1 [Example 1.22, 4-(((2-(Pyridin-2-yl)-5-(pyridin-3-yl)thieno[2,3-d]pyrimidin-4-yl)amino)methyl)-benzenesulfonamide] | < 0.1 | 1 to 20
Cc1csc2c(N3CCC(NCCCc4ccccn4)CC3)ncnc12 [Example 3.3, 1-(7-Methylthieno[3,2-d]pyrimidin-4-yl)-N-(3-(pyridin-2-yl)propyl)piperidin-4-amine] | 0.1 to 1 | > 20
Cc1csc2c(N3CCC(NCCCc4ccc(C#N)cc4)CC3)ncnc12 [Example 3.6, 4-(3-((1-(7-Methylthieno[3,2-d]pyrimidin-4-yl)piperidin-4-yl)amino)propyl)benzonitrile] | 0.1 to 1 | > 20
Cc1ccccc1CCCNC1CCN(c2ncnc3c(C)csc23)CC1 [Example 3.16, 1-(7-Methylthieno[3,2-d]pyrimidin-4-yl)-N-(3-(o-tolyl)propyl)piperidin-4-amine] | 0.1 to 1 | > 20
CCc1nc(NCc2ccc(S(N)(=O)=O)cc2)c2cnn(C)c2n1 [Example 2.40, 4-(((6-Ethyl-1-methyl-1H-pyrazolo[3,4-d]pyrimidin-4-yl)amino)methyl)benzenesulfonamide] | < 0.1 | 0.1 to 1
NS(=O)(=O)c1ccc(CNc2nc(Cl)nc3c2cnn3C2CC2)cc1 [Example 2.84, 4-((6-Chloro-1-cyclopropyl-1H-pyrazolo[3,4-d]pyrimidin-4-yl)aminomethyl)-benzenesulfonamide] | < 0.1 | 1 to 20
Cn1ncc2c(NCc3ccc(S(N)(=O)=O)cc3)nc(C(F)(F)F)nc21 [Example 2.133, 4-((1-Methyl-6-trifluoromethyl-1H-pyrazolo[3,4-d]pyrimidin-4-yl)aminomethyl)-benzenesulfonamide] | 1 to 20 | 1 to 20
c1ccc(-c2csc3nc(-c4ccccn4)nc(NCc4cccs4)c23)cc1 [Example 1.33, (5-Phenyl-2-pyridin-2-yl-thieno[2,3-d]pyrimidin-4-yl)-thiophen-2-ylmethyl-amine] | 0.1 to 1 | 1 to 20
NS(=O)(=O)c1ccc(CNc2nc(-c3ccccc3)nc3scc(-c4ccccc4)c23)s1 [Example 1.27, 5-(((2,5-Diphenylthieno[2,3-d]pyrimidin-4-yl)amino)methyl)thiophene-2-sulfonamide] | 1 to 20 | > 20
COc1cc(CCCNC2CCN(c3ncnc4c(C)csc34)CC2)ccn1 [Example 3.51, N-(3-(2-Methoxypyridin-4-yl)propyl)-1-(7-methylthieno[3,2-d]pyrimidin-4-yl)piperidin-4-amine] | 0.1 to 1 | > 20
NS(=O)(=O)c1ccc(CNc2nc(NC3CC3)nc3scc(-c4ccccc4)c23)cc1 [Example 1.26, 4-(((2-(Cyclopropylamino)-5-phenylthieno[2,3-d]pyrimidin-4-yl)amino)methyl)-benzenesulfonamide] | < 0.1 | < 0.1
Cc1csc2c(N3CCC(NCc4ccncc4)CC3)ncnc12 [Example 3.2, 1-(7-Methylthieno[3,2-d]pyrimidin-4-yl)-N-(pyridin-4-ylmethyl)piperidin-4-amine] | 1 to 20 | > 20
Cc1csc2c(N3CCC(NCCOc4ccc(F)cc4)CC3)ncnc12 [Example 3.23, N-(2-(4-Fluorophenoxy)ethyl)-1-(7-methylthieno[3,2-d]pyrimidin-4-yl)piperidin-4-amine] | > 20 | > 20
Cn1ncc2c(N3CCC(NCCCc4ccncc4)CC3)nc(-c3ccccn3)nc21 [Example 2.20, 1-(1-Methyl-6-(pyridin-2-yl)-1H-pyrazolo[3,4-d]pyrimidin-4-yl)-N-(3-(pyridin-4-yl)propyl)piperidin-4-amine] | > 20 | > 20
NS(=O)(=O)c1ccc(CNc2nc(Cl)nc3c2cnn3CC(F)(F)F)cc1 [Example 2.86, 4-((6-Chloro-1-(2,2,2-trifluoroethyl)-1H-pyrazolo[3,4-d]pyrimidin-4-yl)aminomethyl)-benzenesulfonamide] | 1 to 20 | 1 to 20
CN(C)c1nc(NCc2ccc(S(N)(=O)=O)cc2)c2c(-c3ccccc3)csc2n1 [Example 1.43, 4-(((2-(Dimethylamino)-5-phenylthieno[2,3-d]pyrimidin-4-yl)amino)methyl)-benzenesulfonamide] | < 0.1 | 0.1 to 1
Cc1csc2c(N3CCC(NCCCc4ccc(Cl)cc4)CC3)ncnc12 [Example 3.28, N-(3-(4-Chlorophenyl)propyl)-1-(7-methylthieno[3,2-d]pyrimidin-4-yl)piperidin-4-amine] | < 0.1 | > 20
Cc1csc2c(N3CCC(NC(=O)CCc4ccncc4F)CC3)ncnc12 [Example 3.38, 3-(3-fluoropyridin-4-yl)-N-(1-(7-methylthieno[3,2-d]pyrimidin-4-yl)piperidin-4-yl)propanamide] | > 20 | > 20
Fc1ccc(CNc2nc(-c3ccccn3)nc3scc(-c4ccccc4)c23)cc1 [Example 1.4, N-(4-Fluorobenzyl)-5-phenyl-2-(pyridin-2-yl)thieno[2,3-d]pyrimidin-4-amine] | > 20 | > 20
